In patent publication US20070134255A1 (priority 2003, published 2007):
Like-named read-outs stand apart in the source and are kept apart here.

Tests used:
[1] = tested on: hMPV; test: Ribavirin as a prophylactic: hMPV infected Vero cells counted by immune fluorescence; type: cell-based, Human Metapneumovirus; settings: for reduction in number of infected cells: pre-incubation 2 h before infection, 100 TCID50 hMPV, day 1 post-infection, Vero cells
Description: (§1) Vero cells (African green monkey kidney cells) were maintained and passaged in Iscove's Modified Dulbecco's Medium (IMDM) containing L-glutamine (2 mM), penicillin (100 U/ml), streptomycin (100 μg/ml) and 10% fetal calf serum (FCS) and incubated in a humidified atmosphere at 37° C. Virus infection medium contained bovine serum albumin (BSA; 0.3%) and trypsin (2.5×10^−4%) instead of FCS. Human Metapneumovirus stocks were prepared by inoculating Vero cells with hMPV, and harvesting 7-10 days post-infection, when there were visible cytopathic effects. The virus was stored at −70° C. and titrated by end point dilution on Vero cells.
One day prior to infection, the cells were seeded in 24 well plates at 30-40% confluency, and incubated overnight at 37° C. The next day, cells were pre-incubated with fresh medium containing 0, 5, 25 or 50 μg/ml of Ribavirin for 2 hours prior to virus infection. Following this pre-incubation, cells were infected with 10 or 100 TCID50 (tissue culture infectious doses) of hMPV, in the continuing presence of Ribavirin. After 2 hours, the virus inoculum was washed off and fresh medium containing Ribavirin was put onto the cells.
(§2) The plates were incubated at 37° C. for 1 or 3 days. Medium was refreshed every second day and Ribavirin was maintained in the medium at all times at the appropriate concentration. After the indicated incubation period, medium was removed, the cells were washed with PBS and cells were fixed with 80% acetone. Staining for immune fluorescence analysis was performed by incubating infected cells with guinea pig anti-hMPV serum in PBS for 1 hour, followed by a FITC-labeled rabbit anti-guinea pig polyclonal antibody preparation (DAKO) in PBS for 1 hour. Background staining was finally performed with eriochrome black before analysis under an immune fluorescence microscope. Infected cells were counted in 5 fields under high power magnification (320×). Results are presented as the total number of infected cells counted in these 5 fields

[2] = tested on: hMPV strain NL/01/00; test: Inhibition of hMPV by Ribavirin and neutralizing antibodies in Vero cells (immunofluorescence, estimated percentages of infected cells); type: cell-based, Human Metapneumovirus
Description: Passaging and seeding Vero cells (clone 118) was done in standard DMEM medium, supplemented with 10% FCS, L-glutamin and antibiotics (penicillin and streptomycin). Cells were seeded approximately 1:4 in 48 wells plates, so that cells would be ±75% confluent the next day. Infecting cells was done in IMDM medium with […], Pen/Strep and L-glutamin.
[…]. Plates were finally spun at 1500 g for 5 minutes and incubated at 37C in a humidified atmosphere for 3 days. After 3 days, from duplicate wells of each experimental condition the cells and supernatant were harvested and frozen at −70 C. Aliquots from these virus cultures were used for RNA isolation and subsequent quantification of viral genomic copy numbers by real-time RT-PCR on a TAQMAN® machine. The other duplicate wells from each experimental condition were stained for hMPV by immunofluorescence and numbers of infected cells were counted under a fluorescence microscope. Briefly, cells were washed with PBS and fixed with 80% acetone, washed again and subsequently incubated with a guinea pig anti-hMPV serum. After removal of the antiserum, cells were incubated with a FITC-labeled rabbit-anti-guinea pig polyclonal antibody preparation, washed and analyzed.
Note: Indicated results are estimated percentages of infected cells. Viral genomic copy numbers remain to be determined by taqman analyses (to be done this week)

[3] = tested on: hMPV; test: Ribavirin as a therapeutic (added post-infection): hMPV infected Vero cells counted by immune fluorescence; type: cell-based, Human Metapneumovirus; settings: for inhibition at 25 µg/mL: human metapneumovirus, Vero, read-out: inhibition of viral replication
Description: Percentage of cells infected with hMPV. Cells were infected with 30 TCID50 of hMPV and after 0, 2, 4, 8 and 16 hours, post-infection, 0, 5, 10, 25, 50 or 100 microgram of Ribavirin was added. Three days post-infection, cells were fixed and stained with a hMPV-specific polyclonal antibody, and the number of hMPV positive and negative cells were counted in 5 fields.
as §1
Cells were seeded in 24 well plates as described above. The next day, cells were inoculated with 10 or 100 TCID50 of hMPV in the absence of Ribavirin. Two hours post-infection, the supernatant was aspirated and the cells were washed in phosphate-buffered saline (PBS) to remove virus inoculum. Fresh medium was added and the cells were incubated at 37° C. At different time points (2, 4, 8 and 16 hours) after infection, Ribavirin was added to the cells to reach concentrations of 0, 5, 25 or 50 μg/ml.
as §2

[4] = tested on: PIV type 3 (PIV3); settings: cited from earlier work

NC(=O)c1ncn([C@@H]2O[C@H](CO)[C@@H](O)[C@H]2O)n1 [Ribavirin]
reduction in number of infected cells ([1]; 25 μg/ml Ribavirin): approximately 50% | decrease in the number of infected cells ([1]; 50 μg/ml Ribavirin added 2 hrs prior to or at the same time as virus infection): up to 95% | reduction in number of infected cells ([1]; 50 μg/ml Ribavirin): approximately 95% | effect on number of infected cells compared with day 1 ([1]; day 3 after infection, cells infected with 10 or 100 TCID50): same effect | effect on the growth of hMPV in vero cells in vitro ([2]; FIG. 3, 50 or 250 TCID50): profound effect | inhibition at 25 µg/mL ([2]; human metapneumovirus, Vero, 72 h, read-out: inhibition of viral proliferation): ~90% | inhibition of viral replication ([3]; Ribavirin 25 μg/ml added after 16 hrs, read 3 days post-infection): insignificantly | reduction of infection ([3]; Ribavirin 100 μg/ml added 8 hrs post-infection, read 3 days post-infection): 80% | reduction of infection ([3]; Ribavirin 100 μg/ml added 16 hrs post-infection, read 3 days post-infection): 50% | reduction of infection ([3]; Ribavirin 100 μg/ml added at 0, 2 or 4 hours post-infection, read 3 days post-infection): 95% | percentage of MPV-positive cells ([3]; Ribavirin 25 microgram/ml or higher, added 0-16 hours after infection, 3 days post-infection): greatly reduced | concentration of Ribavirin needed to see a significant effect ([3]; added 8 or 16 hrs post-infection): 100 µg/mL | inhibition at 25 µg/mL ([3]; Ribavirin 25 μg/ml added 4 or 8 hrs post-infection, read 3 days post-infection): 10% | inhibition at 25 µg/mL ([3]; Ribavirin 25 μg/ml added at 0 or 2 hrs post-infection, read 3 days post-infection): 50% | improvement in outcome ([4]; Elizaga et al.: 18 of 24 PIV3 patients treated, starting three days after onset of symptoms): no improvement in outcome was observed | viral shedding of treated and untreated patients ([4]; Nichols et al.: 31 of 55 patients with PIV3 pneumonia treated within 48 hours of diagnosis): similar
